Results on 16 compounds are retold here after patent EP3409278B1, “HETEROCYCLIC PROTEIN KINASE INHIBITORS” (Tolero Pharmaceuticals, Inc., priority 2011, dated 2013).

SMILES strings stand for the structures.

Pim-1 kinase, sequence (P11309 whole entry): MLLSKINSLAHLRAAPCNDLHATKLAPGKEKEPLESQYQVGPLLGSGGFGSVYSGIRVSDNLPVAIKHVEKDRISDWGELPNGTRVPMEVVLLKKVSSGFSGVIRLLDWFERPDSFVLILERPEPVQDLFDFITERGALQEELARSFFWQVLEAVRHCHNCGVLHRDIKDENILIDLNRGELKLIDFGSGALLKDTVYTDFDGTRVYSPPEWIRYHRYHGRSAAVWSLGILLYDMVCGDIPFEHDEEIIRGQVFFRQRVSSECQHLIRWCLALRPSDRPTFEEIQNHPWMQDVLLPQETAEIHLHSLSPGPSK

One assay addresses Pim-1 kinase (Homo sapiens, UniProt P11309). Nature of the assay: Pim-1 kinase inhibition assay (Promega Kinase-Glo).
Details: not given
In kind it is biochemical. An excerpt:
One illustrative manner in which Pim-1 kinase activity can be determined is by quantifying the amount of ATP remaining in solution after an in vitro Pim-1 kinase reaction. The Kinase-Glo Assay Kit (Promega, Inc., Madison, WI) allows this. The amount of ATP remaining in the solution after the kinase reaction serves as a substrate for the luciferase to catalyze luciferin to oxyluciferin plus one photon of light. Thus, the luminescent signal read by the Luminoskan Ascent Instrument (Thermo Electron Corp., Milford, MA) correlates with the amount of ATP present after the kinase reaction and inversely correlates with the amount of kinase acitivity. […] These assays are set up in duplicate 50ul volumes in white, flat bottom 96 well plates. […] This solution is incubated at 30 degrees Celsius at 360rpm for two hours. Following the incubation, 50ul of Kinase-Glo reagent is added to each well, including all positive and negative control wells, and incubated at room temperature for 15 minutes. […] The IC50 values can then be calculated for each inhibitor tested.
Background: In Kinase-Glo more light means more ATP remaining.
For orientation: IC50 means the concentration needed to halve the response being measured. `FC1(F)CCC(CNc2ccc3ncc(-c4cccc(OC(F)(F)F)c4)n3n2)CC1` [8-17, N-((4,4-difluorocyclohexyl)methyl)-3-(3-(trifluoromethoxy)phenyl)imidazo[1,2-b]pyridazin-6-amine] registered an IC50 of 173 nM.
For `CC(C)(O)[C@H]1CC[C@H](Oc2ccc3ncc(-c4cccc(Cl)c4)n3n2)CC1` [8-77, 2-(trans-4-((3-(3-chlorophenyl)imidazo[1,2-b]pyridazin-6-yl)oxy)cyclohexyl)propan-2-ol], the midpoint of inhibition, the IC50, lay at […].

The same assay, now with this note: Table IV; Kinase-Glo, 10uM ATP; read-out: IC50 on Pim1.
For `O[C@@H]1CC[C@@H](Nc2ccc3ncc(-c4cccc(OC(F)(F)F)c4)n3n2)C1` [8-5, (1R,3R)3-((3-(3-(Trifluoromethoxy)phenyl)imidazo[1,2-b]pyridazin-6-yl)amino)cyclopentanol], the IC50 turned out to be 36 nM.
Still for that read-out and setting: under `CC(C)(O)[C@H]1CC[C@H](Nc2ccn3ncc(-c4cccc(Cl)c4)c3n2)CC1` [8-63] stands 23 nM; under `CN1CCC(CNc2ccn3ncc(-c4cccc(OC(F)(F)F)c4)c3n2)CC1` [8-67, N-((1-Methylpiperidin-4-yl)methyl)-3-(3-(trifluoromethoxy)phenyl)pyrazolo[1,5-a]pyrimidin-5-amine], 45 nM; under `CC(C)(O)[C@H]1CC[C@H](Nc2ccn3ncc(-c4cccc(C(F)(F)F)c4)c3n2)CC1` [8-56], 17 nM.
Still for that read-out and setting: the figure for `O=S1(=O)CCC(CNc2ccn3ncc(-c4cccc(OC(F)(F)F)c4)c3n2)CC1` [8-51, 4-(((3-(3-(Trifluoromethoxy)phenyl)pyrazolo[1,5-a]pyrimidin-5-y/)amino)methyl)tetrahydro-2H-thiopyran 1,1-dioxide] is 148 nM; for `CC(C)(O)CCNc1ccc2ncc(-c3cccc(OC(F)(F)F)c3)n2n1` [8-3, 2-Methyl-4-((3-(3-(trifluoromethoxy)phenyl)imidazo[1,2-b]pyridazin-6-yl)amino)butan-2-ol] it is 30 nM; for `O=S1(=O)CCN(c2ccc3ncc(-c4cccc(OC(F)(F)F)c4)n3n2)CC1` [8-15, 4-(3-(3-(Trifluoromethoxy)phenyl)imidazo[1,2-b]pyridazin-6-yl)thiomorpholine 1,1-dioxide] it is 2830 nM.
Same read-out and setting: under `FC(F)(F)Oc1cccc(-c2cnc3ccc(OCC4CCOCC4)nn23)c1` [8-28, 6-((Tetrahydro-2H-pyran-4-yl)methoxy)-3-(3-(trifluoromethoxy)phenyl)imidazo[1,2-b]pyridazine] stands 553 nM; under `O=S1(=O)CCC(CNc2ccn3ncc(-c4cccc(C(F)(F)F)c4)c3n2)CC1` [8-59, 4-(((3-(3-(Trifluoromethyl)phenyl)pyrazolo[1,5-a]pyrimidin-5-yl)amino)methyl)tetrahydro-2H-thiopyran 1,1-dioxide], 111 nM; under `C[C@]1(O)CC[C@H](Nc2ccn3ncc(-c4cccc(OC(F)(F)F)c4)c3n2)CC1` [8-48, 1-Methyl-4-((3-(3-(trifluoromethoxy)phenyl)pyrazolo[1,5-a]pyrimidin-5-yl)amino)-trans-cvclohexanol], 197 nM.
In the case of `ON=C1CCC(Nc2ccc3ncc(-c4cccc(Cl)c4)n3n2)CC1` (stereo not shown) [8-92, 4-((3-(3-chlorophenyl)imidazo[1,2-b]pyridazin-6-yl)amino)cyclohexanone oxime], the 50% inhibitory concentration (IC50) came out at 38 nM.

The assay is the same for the next values; noted with them: Table V; Kinase-Glo, 10uM ATP; read-out: IC50 on Pim1.
Consider `CC(C)(O)[C@H]1CC[C@H](Nc2ccc3nnc(-c4cccc(OC(F)(F)F)c4)n3c2)CC1` [8-101], for which the IC50 was 488 nM.
Take `O[C@H]1CC[C@H](Nc2ccc3nnc(-c4cccc(OC(F)(F)F)c4)n3c2)CC1` [8-104, 4-((3-(3-(Trifluoromethoxy)phenyl)-[1,2,4]triazolo[4,3-a]pyridin-6-yl)amino)-trans-cyclohexanol]: the IC50 stood at 684 nM.
Turning to `FC(F)(F)Oc1cccc(-c2nnc3ccc(N[C@H]4CC[C@@H](Br)CC4)cn23)c1` [8-105, 4-(cis-Bromocyclohexyl)-3-(3-(trifluoromethoxy)phenyl)-(1,2,4]triazolo[4,3-a]pyridin-6-amine], the IC50 stood at 2490 nM.
